Results reported in ChEMBL document CHEMBL5500378, “Discovery of 4-benzylpiperazinequinoline BChE inhibitor that suppresses neuroinflammation for the treatment of Alzheimer's disease” (Eur J Med Chem, 2024).
Calls of active or inactive are those of the source. The rule behind the calls is not given here.

Key:
[1] = molecular target: Acetylcholinesterase (Electrophorus electricus) (UniProt O42275); assay: Inhibition of electric eel AChE using ATC as substrate at 10 uM incubated for 2 mins by Ellman's method relative to control
[2] = Half life in Sprague-Dawley rat at 10 mg/kg, IG measured for 2880 mins by LC-MS/MS analysis; format: ADME, organism-based; settings: in vivo, po
[3] = AUC (0 to infinity) in Sprague-Dawley rat at 10 mg/kg, iv measured for 2880 mins by LC-MS/MS analysis; format: ADME, organism-based; settings: in vivo
[4] = Drug concentration in brain of ICR mouse at 10 mg/kg, IG measured at about 22 mins by LC-MS/MS analysis; format: ADME, organism-based; settings: po, read-out: Ct
[5] = Half life in brain of ICR mouse at 10 mg/kg, IG measured at 10 to 240 mins by LC-MS/MS analysis; format: ADME, organism-based; settings: po, time 10-240 min
[6] = AUC (0 to t) in brain of ICR mouse at 10 mg/kg, IG measured at 10 to 240 mins by LC-MS/MS analysis; format: ADME, organism-based; settings: po, time 10-240 min
[7] = Ratio of Cmax in brain to plasma of ICR mouse at 10 mg/kg, IG measured at 10 to 240 mins by LC-MS/MS analysis; format: ADME, organism-based; settings: po, time 10-240 min
[8] = Ratio of AUC in brain to plasma of ICR mouse at 10 mg/kg, IG measured at 10 to 240 mins by LC-MS/MS analysis; format: ADME, organism-based; settings: po, time 10-240 min
[9] = Neurotoxicity against human SH-SY5Y cells by MTT assay; format: toxicity, cell-based
[10] = Neurotoxicity against rat PC12 cells by MTT assay; format: toxicity, cell-based; settings: pc-12
[11] = Neurotoxicity against mouse BV-2 cells by MTT assay; format: toxicity, cell-based
L02 = assay: Cytotoxicity against human L02 cells by MTT assay; format: toxicity, cell-based
SH-SY5Y = assay: Neuroprotective activity against Amyloid beta(1 to 42)-induced neuronal damage in human SH-SY5Y cells assessed as increase in cell survival at 1 to 10 uM pretreated for 1 hr followed by Amyloid beta(1 to 42) addition measured after 24 hrs by MTT assay; format: functional, cell-based; settings: dose 1-10 µM, time 25.0 hrs
[12] = tested on: Antioxidant response element; assay: Induction of ARE in human HepG2-ARE-C8 cells incubated for 24 hrs by luciferase based assay; format: cell-based; settings: HepG2-ARE-C8, 24 h
BV-2 = assay: Anti-inflammatory activity against mouse BV-2 cells assessed as decrease in LPS-induced IL-6 level at 2 to 6 uM preincubated for 1 hr followed by LPS addition and incubated overnight by ELISA; format: functional, cell-based; settings: dose 2-6 µM
[13] = Toxicity in ICR mouse assessed as animal death administered orally; settings: in vivo, po
Mus musculus [14] = assay: Neuroprotective activity in ICR mouse model of Amyloid beta(1 to 42)-induced cognitive impairment assessed as increase in AChE expression in brain at 10 mg/kg, IG for 12 days by ELISA; format: functional, organism-based; settings: time 12.0 day
Mus musculus [15] = assay: Anti-inflammatory activity in ICR mouse model assessed as reversal of LPS-induced body weight loss at 10 mg/kg, IG pretreated for 10 days followed by LPS treatment for 4 days; format: functional, organism-based; settings: time 14.0 day
Mus musculus [16] = assay: Anti-inflammatory activity in ICR mouse model assessed as reduction in trajectory confusion at 10 mg/kg, IG pretreated for 10 days followed by LPS treatment for 4 days by Moris water maze test; format: functional, organism-based; settings: time 14.0 day
Mus musculus [17] = assay: Anti-inflammatory activity in ICR mouse model assessed as reduction in serum TNF-alpha level at 10 mg/kg, IG pretreated for 10 days followed by LPS treatment for 4 days by ELISA; format: functional, organism-based; settings: time 14.0 day
Mus musculus [18] = assay: Anti-inflammatory activity in ICR mouse model assessed as reduction in serum IL-1beta level at 10 mg/kg, IG pretreated for 10 days followed by LPS treatment for 4 days by ELISA; format: functional, organism-based; settings: time 14.0 day

Chain of Acetylcholinesterase (Electrophorus electricus) (O42275 24-633 limits assumed): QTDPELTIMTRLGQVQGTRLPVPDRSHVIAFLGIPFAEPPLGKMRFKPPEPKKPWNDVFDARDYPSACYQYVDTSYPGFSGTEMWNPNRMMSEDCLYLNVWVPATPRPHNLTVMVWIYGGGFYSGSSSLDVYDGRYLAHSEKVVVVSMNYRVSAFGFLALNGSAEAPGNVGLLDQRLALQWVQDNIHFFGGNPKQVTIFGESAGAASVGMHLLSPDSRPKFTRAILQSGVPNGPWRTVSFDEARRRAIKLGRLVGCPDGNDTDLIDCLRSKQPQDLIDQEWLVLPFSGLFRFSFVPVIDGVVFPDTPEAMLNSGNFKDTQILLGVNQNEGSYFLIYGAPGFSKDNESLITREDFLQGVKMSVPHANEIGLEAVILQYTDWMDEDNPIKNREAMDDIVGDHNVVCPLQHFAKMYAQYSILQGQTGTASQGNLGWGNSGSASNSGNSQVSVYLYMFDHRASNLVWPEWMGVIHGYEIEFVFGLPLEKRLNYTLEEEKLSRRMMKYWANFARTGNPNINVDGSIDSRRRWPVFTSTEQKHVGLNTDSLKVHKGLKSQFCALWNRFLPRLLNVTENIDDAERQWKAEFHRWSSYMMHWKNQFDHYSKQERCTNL

Question: Which results are given for `CCCc1ccc(C(=O)Nc2cnc3ccccc3c2N2CCN(Cc3ccccc3)CC2)cc1`?
Answer: inhibition [1]: < 50%; half-life [2]: 2.81 h; AUC(0-inf) [3]: 6070 ng·h/mL; concentration at 22 min [4]: 554 ng/mL; half-life [5]: 1.6 h; AUC(0-t) [6]: 38300 ng·h/mL; Kp [7]: 2.33; Kp [8]: 1.96; Activity [9]: Not Active; Activity [10]: Not Active; Activity [11]: Not Active; Activity (L02): Non-Toxic; Activity (SH-SY5Y): Active; EC50 [12]: 23.5 µM; Activity (BV-2): Active; Activity [13]: Non-Toxic; Activity (Mus musculus [14]): Active; Activity (Mus musculus [15]): Active; Activity (Mus musculus [16]): Active; Activity (Mus musculus [17]): Active; Activity (Mus musculus [18]): Active
